Laboratory results from article PMC8347481, “Germacranolides from Carpesium divaricatum: Some New Data on Cytotoxic and Anti-Inflammatory Activity” (Molecules, 2021).
Read-outs that look alike come from different tables or passages of the source.

Key:
[1] = LDH cell viability assay, normal prostate epithelial cells; type: cell-based, human; conditions: human, PNT2 normal prostate epithelial cells, 24 h, read-out: Cell Viability (%) ± SD
Protocol: (§1) Normal prostate epithelial cells (PNT2), two prostate cancer cell lines (Du145 and PC3), human keratinocytes (HaCaT), two melanoma cell lines (A375 and HTB140) and two colon cancer cell lines (HT29 and Caco-2) were treated with 3 at a concentration range 1.0–50.0 µg/mL. Viability of the cells was estimated using lactate dehydrogenase (LDH) assay.
(§2) Cytotoxic activity of 3 was tested on human cancer and normal cells, grouped in three panels: prostate, skin and gastrointestinal. The prostate panel comprised prostate cancer cell lines DU145 (ATCC HTB-81) and PC3 (ATCC CRL-1435) and prostate normal epithelial cells PNT2 (ECACC 95012613). Melanoma cell lines A375 (ATCC CRL-1619) and HTB140 (ATCC Hs 294T) together with human keratinocytes HaCaT (obtained as a kind gift of Prof. Marta Michalik, Department of Cell Biology, Jagiellonian University) were included in the skin panel. Two colon cancer cell lines, namely Caco-2 (ATCC HTB-37) and HT29 (ATCC HTB-38), constituted the gastrointestinal panel. Du145 cells were grown in a modified Eagle’s medium with low (1.0 g/L) glucose concentration; HT29, PC3 and PNT-2 cells were grown in Dulbecco’s modified Eagle’s medium (DMEM) and F12 HAM Nutrient Mixture; Caco-2 cells were grown in modified Eagle’s medium with nonessential amino acids (NEAA); and melanoma cells and keratinocytes were maintained in modified Eagle’s medium with high (4.5 g/L) glucose concentration. The culture media contained antibiotics and 10% fetal bovine serum (FBS). All cultures were maintained at 37 °C in a humidified, 5% CO2-containing atmosphere.
(§3) The examined compound (3) was diluted in the culture media from freshly made stock solution in MeOH (10 mg/mL) to the working concentrations (from 0 to 50 μg/mL). Cell viability was determined as described previously. […] Then, the culture medium was replaced with the medium containing different concentrations of the assessed compound (1–50 μg/mL). After 24 h of incubation, the viability of the cells was determined using colorimetric lactate dehydrogenase (LDH) assay in comparison to the controls to which corresponding aliquots of MeOH diluted with culture media were added. Cells grown in the medium without the tested compound were used as control I (negative), and the positive control (control II) was obtained by incubation of the cells in the medium containing 1% Triton X-100. LDH released from the damaged cells into the cell culture medium was quantified by measuring the absorbance at 490 nm using a Synergy II Biotek microplate reader. Cytotoxicities of the examined compounds were calculated as follows: ((absorbance of the tested sample−absorbance of control I)/(absorbance of control II−absorbance of control I)) × 100. Results were means of three independent measurements (± SD). Doxorubicin (Ebewe Pharma G.m.b.H., Unterach, Austria) was used as a reference cytostatic drug.

PNT2 = experiment: as above; type: cell-based, human; conditions: Homo sapiens, PNT2, 24 h, LDH assay
Protocol: as §1, §2, §3

Du145 = experiment: LDH cell viability assay, prostate cancer cells; type: cell-based; conditions: Homo sapiens, DU-145; for IC50: Du145, 24 h, LDH assay
Protocol: as §1, §2, §3

PC3 = experiment: LDH cell viability assay, prostate cancer cells; type: cell-based; conditions: Homo sapiens, PC-3; for IC50: PC3, 24 h, LDH assay
Protocol: as §1, §2, §3

[2] = LDH cell viability assay, keratinocytes; type: cell-based, human; conditions: human, HaCaT keratinocytes, read-out: Cell Viability (%) ± SD
Protocol: as §1, §2, §3

HaCaT = experiment: LDH cell viability assay, keratinocytes; type: cell-based, human; conditions: Homo sapiens, 24 h, LDH assay
Protocol: as §1, §2, §3

Caco-2 = experiment: LDH cell viability assay, colon cancer cells; type: cell-based; conditions: Homo sapiens; for IC50: Caco-2, 24 h, LDH assay
Protocol: as §1, §2, §3

HT29 = experiment: LDH cell viability assay, colon cancer cells; type: cell-based; conditions: Homo sapiens, HT-29; for IC50: HT29, 24 h, LDH assay
Protocol: as §1, §2, §3

[3] = test system: normal and cancer cell lines (prostate, skin, gastrointestinal panels); experiment: LDH cytotoxicity, whole panel of normal and cancer cell lines; type: cell-based; conditions: Homo sapiens; 24 h treatment, cell density 1.5 × 10^4; doxorubicin: except PC3 cells; read-out: IC50 range over the cell lines
Protocol: Cytotoxic activity of 3 was tested on human cancer and normal cells, grouped in three panels: prostate, skin and gastrointestinal. The prostate panel comprised prostate cancer cell lines DU145 (ATCC HTB-81) and PC3 (ATCC CRL-1435) and prostate normal epithelial cells PNT2 (ECACC 95012613). Melanoma cell lines A375 (ATCC CRL-1619) and HTB140 (ATCC Hs 294T) together with human keratinocytes HaCaT (obtained as a kind gift of Prof. Marta Michalik, Department of Cell Biology, Jagiellonian University) were included in the skin panel. Two colon cancer cell lines, namely Caco-2 (ATCC HTB-37) and HT29 (ATCC HTB-38), constituted the gastrointestinal panel. […]
The examined compound (3) was diluted in the culture media from freshly made stock solution in MeOH (10 mg/mL) to the working concentrations (from 0 to 50 μg/mL). Cell viability was determined as described previously. […] Then, the culture medium was replaced with the medium containing different concentrations of the assessed compound (1–50 μg/mL). After 24 h of incubation, the viability of the cells was determined using colorimetric lactate dehydrogenase (LDH) assay in comparison to the controls to which corresponding aliquots of MeOH diluted with culture media were added. […] LDH released from the damaged cells into the cell culture medium was quantified by measuring the absorbance at 490 nm using a Synergy II Biotek microplate reader. […]

HepG2 cells = test system: HepG2 cells; parameters: method as in PMID 29751555; conditions: HepG2, cell density 2 × 10^4, 96 h treatment; cited from earlier work
HeLa cells = test system: HeLa cells; parameters: method as in PMID 29751555; conditions: cell density 2 × 10^4, 96 h treatment; cited from earlier work
A459 cells = test system: A459 cells; parameters: method as in PMID 29751555; conditions: cited from earlier work
[4] = value in parentheses, read-out: IC50 (IC50 µM) (converted)

## C=C1C(=O)O[C@H]2[C@H]1[C@@H](O)[C@H](OC(=O)CC(C)C)[C@H](C)CCC(=O)[C@](C)(O)[C@@H]2OC(=O)C(C)C [Compound 3]
[1]; PNT2, 1 µg/mL
  viability at 24 h, 1 µg/mL: 87.1 ± 1.79%
[1]; PNT2, 3 µg/mL
  viability at 24 h, 3 µg/mL: 77.2 ± 1.32%
[1]; PNT2, 5 µg/mL
  viability at 24 h, 5 µg/mL: 69.4 ± 0.97%
[1]; PNT2, 10 µg/mL
  viability at 24 h, 10 µg/mL: 52.8 ± 2.31%
[1]; PNT2, 20 µg/mL
  viability at 24 h, 20 µg/mL: 32.5 ± 1.84%
[1]; PNT2, 30 µg/mL
  viability at 24 h, 30 µg/mL: 21.4 ± 0.45%
[1]; PNT2, 50 µg/mL
  viability at 24 h, 50 µg/mL: 3.29 ± 1.27%
PNT2; [4]
  IC50: 35 µM
PNT2; read-out: IC50
  IC50: 16.4 ± 0.4 µg/mL
Du145; Du145, 1 µg/mL, 24 h, read-out: Cell Viability (%) ± SD
  viability at 1 µg/mL: 68.42 ± 0.52%
Du145; Du145, 3 µg/mL, 24 h, read-out: Cell Viability (%) ± SD
  viability at 3 µg/mL: 56.3 ± 0.97%
Du145; Du145, 5 µg/mL, 24 h, read-out: Cell Viability (%) ± SD
  viability at 5 µg/mL: 44.8 ± 2.05%
Du145; Du145, 10 µg/mL, 24 h, read-out: Cell Viability (%) ± SD
  viability at 10 µg/mL: 37.7 ± 2.16%
Du145; Du145, 20 µg/mL, 24 h, read-out: Cell Viability (%) ± SD
  viability at 20 µg/mL: 23.6 ± 1.54%
Du145; Du145, 30 µg/mL, 24 h, read-out: Cell Viability (%) ± SD
  viability at 30 µg/mL: 12.5 ± 1.94%
Du145; Du145, 50 µg/mL, 24 h, read-out: Cell Viability (%) ± SD
  viability at 50 µg/mL: 0.62 ± 0.58%
Du145; [4]
  IC50: 10.8 µM
Du145; read-out: IC50
  IC50: 5.08 ± 1.14 µg/mL
PC3; PC3, 1 µg/mL, 24 h, read-out: Cell Viability (%) ± SD
  viability at 1 µg/mL: 78.5 ± 1.08%
PC3; PC3, 3 µg/mL, 24 h, read-out: Cell Viability (%) ± SD
  viability at 3 µg/mL: 65 ± 1.46%
PC3; PC3, 5 µg/mL, 24 h, read-out: Cell Viability (%) ± SD
  viability at 5 µg/mL: 49.9 ± 2.02%
PC3; PC3, 10 µg/mL, 24 h, read-out: Cell Viability (%) ± SD
  viability at 10 µg/mL: 37.2 ± 1.27%
PC3; PC3, 20 µg/mL, 24 h, read-out: Cell Viability (%) ± SD
  viability at 20 µg/mL: 29.2 ± 1.89%
PC3; PC3, 30 µg/mL, 24 h, read-out: Cell Viability (%) ± SD
  viability at 30 µg/mL: 5.42 ± 2.25%
PC3; PC3, 50 µg/mL, 24 h, read-out: Cell Viability (%) ± SD
  viability at 50 µg/mL: 0.65 ± 0.33%
PC3; [4]
  IC50: 19.1 µM
PC3; read-out: IC50
  IC50: 8.92 ± 1.02 µg/mL
[2]; 1 µg/mL
  viability at 24 h, 1 µg/mL: 86.8 ± 1.7%
[2]; 3 µg/mL
  viability at 24 h, 3 µg/mL: 74.5 ± 2.29%
[2]; 5 µg/mL
  viability at 24 h, 5 µg/mL: 64.4 ± 1.33%
[2]; 10 µg/mL
  viability at 24 h, 10 µg/mL: 30.5 ± 1.32%
[2]; 20 µg/mL
  viability at 24 h, 20 µg/mL: 0.79 ± 0.72%
[2]; 30 µg/mL
  viability at 24 h, 30 µg/mL: 0%
[2]; 50 µg/mL
  viability at 24 h, 50 µg/mL: 0%
HaCaT; read-out: IC50
  IC50: 7.95 ± 0.15 µg/mL
HaCaT; [4]
  IC50: 17 µM
Caco-2; Caco-2, 1 µg/mL, 24 h, read-out: Cell Viability (%) ± SD
  viability at 1 µg/mL: 52.8 ± 1.62%
Caco-2; Caco-2, 3 µg/mL, 24 h, read-out: Cell Viability (%) ± SD
  viability at 3 µg/mL: 38.6 ± 2.35%
Caco-2; Caco-2, 5 µg/mL, 24 h, read-out: Cell Viability (%) ± SD
  viability at 5 µg/mL: 15.1 ± 2.91%
Caco-2; Caco-2, 10 µg/mL, 24 h, read-out: Cell Viability (%) ± SD
  viability at 10 µg/mL: 1.96 ± 2.7%
Caco-2; Caco-2, 20 µg/mL, 24 h, read-out: Cell Viability (%) ± SD
  viability at 20 µg/mL: 0.31 ± 0.43%
Caco-2; Caco-2, 30 µg/mL, 24 h, read-out: Cell Viability (%) ± SD
  viability at 30 µg/mL: 0%
Caco-2; Caco-2, 50 µg/mL, 24 h, read-out: Cell Viability (%) ± SD
  viability at 50 µg/mL: 0%
Caco-2; [4]
  IC50: 8.29 µM
Caco-2; read-out: IC50
  IC50: 3.88 ± 0.1 µg/mL
HT29; HT29, 1 µg/mL, 24 h, read-out: Cell Viability (%) ± SD
  viability at 1 µg/mL: 69.3 ± 1.75%
HT29; HT29, 3 µg/mL, 24 h, read-out: Cell Viability (%) ± SD
  viability at 3 µg/mL: 58 ± 1.66%
HT29; HT29, 5 µg/mL, 24 h, read-out: Cell Viability (%) ± SD
  viability at 5 µg/mL: 49.2 ± 2%
HT29; HT29, 10 µg/mL, 24 h, read-out: Cell Viability (%) ± SD
  viability at 10 µg/mL: 38 ± 2.29%
HT29; HT29, 20 µg/mL, 24 h, read-out: Cell Viability (%) ± SD
  viability at 20 µg/mL: 24.4 ± 1.1%
HT29; HT29, 30 µg/mL, 24 h, read-out: Cell Viability (%) ± SD
  viability at 30 µg/mL: 10.4 ± 1.09%
HT29; HT29, 50 µg/mL, 24 h, read-out: Cell Viability (%) ± SD
  viability at 50 µg/mL: 0.79 ± 0.78%
HT29; [4]
  IC50: 13.3 µM
HT29; read-out: IC50
  IC50: 6.23 ± 0.89 µg/mL
[3]
  IC50: 8.3 to 35 µM
HepG2 cells
  IC50: 17 µM
HeLa cells
  IC50: 29.4 µM
A459 cells
  Cytotoxicity: resistant
